We go through 26 compounds from US10787452B2 (Vertex Pharmaceuticals Incorporated, priority 2012, dated 2020).

SMILES strings stand for the structures.

The assay relates to HCT116 colorectal cancer cells. Kind of assay: Cisplatin sensitization assay (96 h cell viability MTS).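 Also: compound concentration needed to lower the Cisplatin-alone IC50 by a set fold.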 The class given is cell-based. The note with it: 96 h MTS, compound plus Cisplatin. The method, boiled down: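 HCT116 cells were co-treated with compound and cisplatin, each in 2-fold serial dilutions from a 10 μM top final concentration, as a full matrix. After 96 h at 37 °C, 5% CO2, viability was read by MTS following a 1 h incubation with reagent.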

For the compound `CN1CCN(S(=O)(=O)C2CCN(c3c(F)cncc3NC(=O)c3c(N)nn4cc(F)cnc34)CC2)CC1` [I-N-166, 2-amino-6-fluoro-N-(5-fluoro-4-(4-((4-methylpiperazin-1-yl)sulfonyl)piperidin-1-yl)pyridin-3-yl)pyrazolo[1,5-a]pyrimidine-3-carboxamide], the “Cisplatin Sensitization Assay” value is “+++ (Compounds with a Cisplatin sensitization value of <0.02 μM are marked with “+++.”)”.

As for `Nc1nn2cc(F)cnc2c1C(=O)Nc1cncc(F)c1N1CCC(N2CCOCC2)CC1` [I-N-189, 2-amino-6-fluoro-N-(5-fluoro-4-(4-morpholinopiperidin-1-yl)pyridin-3-yl)pyrazolo[1,5-a]pyrimidine-3-carboxamide], the “Cisplatin Sensitization Assay” value is reported as “+++ (Compounds with a Cisplatin sensitization value of <0.02 μM are marked with “+++.”)”.

Take `COC1CN(C(=O)C2CCN(c3ccncc3NC(=O)c3c(N)nn4cc(F)cnc34)CC2)C1` [I-G-78, 2-amino-6-fluoro-N-(4-(4-(3-methoxyazetidine-1-carbonyl)piperidin-1-yl)pyridin-3-yl)pyrazolo[1,5-a]pyrimidine-3-carboxamide]: the “Cisplatin Sensitization Assay” value is listed as “+++ (Compounds with a Cisplatin sensitization value of <0.02 μM are marked with “+++.”)”.

With `Nc1nn2cc(F)cnc2c1C(=O)Nc1cncc(F)c1N1CCCCC1` [I-N-270, 2-amino-6-fluoro-N-(5-fluoro-4-(piperidin-1-yl)pyridin-3-yl)pyrazolo[1,5-a]pyrimidine-3-carboxamide], the “Cisplatin Sensitization Assay” value is reported as “+++ (Compounds with a Cisplatin sensitization value of <0.02 μM are marked with “+++.”)”.

For the compound `Cn1ccc(-c2ccncc2NC(=O)c2c(N)nn3cc(F)cnc23)n1` [I-C-68, 2-amino-6-fluoro-N-(4-(1-methyl-1H-pyrazol-3-yl)pyridin-3-yl)pyrazolo[1,5-a]pyrimidine-3-carboxamide], the “Cisplatin Sensitization Assay” value is “+ (Compounds with a Cisplatin sensitization value >0.2 μM but <5 μM are marked with “+.”)”.

With `CC(C)N1CCN2CCN(c3ccncc3NC(=O)c3c(N)nn4cc(F)cnc34)CC2C1=O` (centres unmarked) [I-N-245, 2-amino-6-fluoro-N-(4-(8-isopropyl-9-oxohexahydro-1H-pyrazino[1,2-a]pyrazin-2(6H)-yl)pyridin-3-yl)pyrazolo[1,5-a]pyrimidine-3-carboxamide], the “Cisplatin Sensitization Assay” value is recorded as “++ (Compounds with a Cisplatin sensitization value >0.02 μM but <0.2 μM are marked with “++.”)”.

For the compound `Nc1nn2cc(F)cnc2c1C(=O)Nc1cnccc1N1CCC(C(=O)N2CC(F)(F)C2)CC1` [I-G-80, 2-amino-N-(4-(4-(3,3-difluoroazetidine-1-carbonyl)piperidin-1-yl)pyridin-3-yl)-6-fluoropyrazolo[1,5-a]pyrimidine-3-carboxamide], the “Cisplatin Sensitization Assay” value was “+++ (Compounds with a Cisplatin sensitization value of <0.02 μM are marked with “+++.”)”.

Consider `COCC1CN(c2ccncc2NC(=O)c2c(N)nn3cc(Cl)cnc23)CCN1C` (centres unmarked) [I-N-47, 2-amino-6-chloro-N-(4-(3-(methoxymethyl)-4-methylpiperazin-1-yl)pyridin-3-yl)pyrazolo[1,5-a]pyrimidine-3-carboxamide], for which the “Cisplatin Sensitization Assay” value is given as “++ (Compounds with a Cisplatin sensitization value >0.02 μM but <0.2 μM are marked with “++.”)”.

Take `Nc1nn2cc(F)cnc2c1C(=O)Nc1cnccc1O[C@H]1CCCNC1` [I-O-85, (S)-2-amino-6-fluoro-N-(4-(piperidin-3-yloxy)pyridin-3-yl)pyrazolo[1,5-a]pyrimidine-3-carboxamide]: the “Cisplatin Sensitization Assay” value is listed as “+++ (Compounds with a Cisplatin sensitization value of <0.02 μM are marked with “+++.”)”.

As to `Nc1nn2cc(F)cnc2c1C(=O)Nc1cncc(F)c1N1CCC(c2nccs2)CC1` [I-N-184, 2-amino-6-fluoro-N-(5-fluoro-4-(4-(thiazol-2-yl)piperidin-1-yl)pyridin-3-yl)pyrazolo[1,5-a]pyrimidine-3-carboxamide], the “Cisplatin Sensitization Assay” value is given as “++ (Compounds with a Cisplatin sensitization value >0.02 μM but <0.2 μM are marked with “++.”)”.

Turning to `CN(C)CCCOc1ccncc1NC(=O)c1c(N)nn2cc(Cl)cnc12` [I-O-52, 2-amino-6-chloro-N-(4-(3-(dimethylamino)propoxy)pyridin-3-yl)pyrazolo[1,5-a]pyrimidine-3-carboxamide], the “Cisplatin Sensitization Assay” value is “+ (Compounds with a Cisplatin sensitization value >0.2 μM but <5 μM are marked with “+.”)”.

With `Nc1nn2cc(Cl)cnc2c1C(=O)Nc1cnccc1N1CCN(C2COC2)CC1` [I-N-58, 2-amino-6-chloro-N-(4-(4-(oxetan-3-yl)piperazin-1-yl)pyridin-3-yl)pyrazolo[1,5-a]pyrimidine-3-carboxamide], the “Cisplatin Sensitization Assay” value is on record as “++ (Compounds with a Cisplatin sensitization value >0.02 μM but <0.2 μM are marked with “++.”)”.

With `Nc1nn2cc(Cl)cnc2c1C(=O)Nc1cnccc1-n1ccnc1` [I-N-29, N-(4-(1H-imidazol-1-yl)pyridin-3-yl)-2-amino-6-chloropyrazolo[1,5-a]pyrimidine-3-carboxamide], the “Cisplatin Sensitization Assay” value is listed as “++ (Compounds with a Cisplatin sensitization value >0.02 μM but <0.2 μM are marked with “++.”)”.

Take `Nc1nn2cc(F)cnc2c1C(=O)Nc1cncc(F)c1N1CCC(C(=O)N2CCNCC2)CC1` [I-G-12, 2-amino-6-fluoro-N-(5-fluoro-4-(4-(piperazine-1-carbonyl)piperidin-1-yl)pyridin-3-yl)pyrazolo[1,5-a]pyrimidine-3-carboxamide]: the “Cisplatin Sensitization Assay” value is listed as “+++ (Compounds with a Cisplatin sensitization value of <0.02 μM are marked with “+++.”)”.

Consider `Nc1nn2cc(F)cnc2c1C(=O)Nc1cncc(Cl)c1N1CCNCC1` [I-N-126, 2-amino-N-(5-chloro-4-(piperazin-1-yl)pyridin-3-yl)-6-fluoropyrazolo[1,5-a]pyrimidine-3-carboxamide], for which the “Cisplatin Sensitization Assay” value is “+++ (Compounds with a Cisplatin sensitization value of <0.02 μM are marked with “+++.”)”.

With `Cc1cncn1-c1ccncc1NC(=O)c1c(N)nn2cc(F)cnc12` [I-N-283, 2-amino-6-fluoro-N-(4-(5-methyl-1H-imidazol-1-yl)pyridin-3-yl)pyrazolo[1,5-a]pyrimidine-3-carboxamide], the “Cisplatin Sensitization Assay” value is reported as “++ (Compounds with a Cisplatin sensitization value >0.02 μM but <0.2 μM are marked with “++.”)”.

In the case of `CS(=O)(=O)C1CCCN(c2ccncc2NC(=O)c2c(N)nn3cc(F)cnc23)C1` (centres unmarked) [I-N-221, 2-amino-6-fluoro-N-(4-(3-(methylsulfonyl)piperidin-1-yl)pyridin-3-yl)pyrazolo[1,5-a]pyrimidine-3-carboxamide], the “Cisplatin Sensitization Assay” value was “++ (Compounds with a Cisplatin sensitization value >0.02 μM but <0.2 μM are marked with “++.”)”.

In the case of `Nc1nn2cc(F)cnc2c1C(=O)Nc1cnccc1N1CCC(S(=O)(=O)N2CCN3CCC2CC3)CC1` [I-N-196, N-(4-(4-(1,4-diazabicyclo[3.2.2]nonan-4-ylsulfonyl)piperidin-1-yl)pyridin-3-yl)-2-amino-6-fluoropyrazolo[1,5-a]pyrimidine-3-carboxamide], the “Cisplatin Sensitization Assay” value is “+++ (Compounds with a Cisplatin sensitization value of <0.02 μM are marked with “+++.”)”.

In the case of `Cc1ccncc1NC(=O)c1c(N)nn2cc(F)cnc12` [I-C-4, 2-amino-6-fluoro-N-(4-methylpyridin-3-yl)pyrazolo[1,5-a]pyrimidine-3-carboxamide], the “Cisplatin Sensitization Assay” value was “++ (Compounds with a Cisplatin sensitization value >0.02 μM but <0.2 μM are marked with “++.”)”.

With `CN1CCN(C(=O)[C@H]2CC[C@@H](Oc3ccncc3NC(=O)c3c(N)nn4cc(F)cnc34)CC2)CC1` [I-O-19], the “Cisplatin Sensitization Assay” value is given as “+++ (Compounds with a Cisplatin sensitization value of <0.02 μM are marked with “+++.”)”.

As to `CN1CCN(C(=O)c2cnc(-c3ccncc3NC(=O)c3c(N)nn4cc(F)cnc34)c(Cl)c2)CC1` [I-C-46, 2-amino-N-(3-chloro-5-(4-methylpiperazine-1-carbonyl)-[2,4′-bipyridin]-3′-yl)-6-fluoropyrazolo[1,5-a]pyrimidine-3-carboxamide], the “Cisplatin Sensitization Assay” value is recorded as “+ (Compounds with a Cisplatin sensitization value >0.2 μM but <5 μM are marked with “+.”)”.

On to `Cc1cncc(NC(=O)c2c(N)nn3cc(F)cnc23)c1N1CCN(C2COC2)CC1` [I-N-16, 2-amino-6-fluoro-N-(5-methyl-4-(4-(oxetan-3-yl)piperazin-1-yl)pyridin-3-yl)pyrazolo[1,5-a]pyrimidine-3-carboxamide], for which the “Cisplatin Sensitization Assay” value is “+++ (Compounds with a Cisplatin sensitization value of <0.02 μM are marked with “+++.”)”.

As for `CCOc1ccncc1NC(=O)c1c(N)nn2cc(Cl)cnc12` [I-O-56, 2-amino-6-chloro-N-(4-ethoxypyridin-3-yl)pyrazolo[1,5-a]pyrimidine-3-carboxamide], the “Cisplatin Sensitization Assay” value is listed as “+++ (Compounds with a Cisplatin sensitization value of <0.02 μM are marked with “+++.”)”.

For `CC(C#N)c1cnc2c(C(=O)Nc3cnccc3N3CCN(C4COC4)CC3)c(N)nn2c1` (centres unmarked) [I-N-143, 2-amino-6-(1-cyanoethyl)-N-(4-(4-(oxetan-3-yl)piperazin-1-yl)pyridin-3-yl)pyrazolo[1,5-a]pyrimidine-3-carboxamide], the “Cisplatin Sensitization Assay” value was “++ (Compounds with a Cisplatin sensitization value >0.02 μM but <0.2 μM are marked with “++.”)”.

Consider `Nc1nn2cc(F)cnc2c1C(=O)Nc1cncc(F)c1N1CCN([C@H]2CCOC2)CC1` [I-N-125, (S)-2-amino-6-fluoro-N-(5-fluoro-4-(4-(tetrahydrofuran-3-yl)piperazin-1-yl)pyridin-3-yl)pyrazolo[1,5-a]pyrimidine-3-carboxamide], for which the “Cisplatin Sensitization Assay” value is reported as “+++ (Compounds with a Cisplatin sensitization value of <0.02 μM are marked with “+++.”)”.

As to `Cc1cncc(NC(=O)c2c(N)nn3cc(F)cnc23)c1N1CCC(C(=O)N2CCN(C)CC2)CC1` [I-G-55, 2-amino-6-fluoro-N-(5-methyl-4-(4-(4-methylpiperazine-1-carbonyl)piperidin-1-yl)pyridin-3-yl)pyrazolo[1,5-a]pyrimidine-3-carboxamide], the “Cisplatin Sensitization Assay” value was “+++ (Compounds with a Cisplatin sensitization value of <0.02 μM are marked with “+++.”)”.
